In the NIST ThermoML archive (doi:10.1016/j.fluid.2008.06.007):

Settings: Liquid, Vibrating tube method

CCCCCO [pentan-1-ol]
Settings	mass density [kg/m3]
293.15 K, 100 kPa	814.7
293.15 K, 10000 kPa	821.1
293.15 K, 20000 kPa	827.3
293.15 K, 30000 kPa	833.2
293.15 K, 40000 kPa	838.6
293.15 K, 50000 kPa	843.6
293.15 K, 60000 kPa	848.5
293.15 K, 70000 kPa	853.1
293.15 K, 80000 kPa	857.4
293.15 K, 90000 kPa	861.7
293.15 K, 100000 kPa	865.8
293.15 K, 110000 kPa	869.6
293.15 K, 120000 kPa	873.2
293.15 K, 130000 kPa	876.9
293.15 K, 140000 kPa	880.3
303.15 K, 100 kPa	807.3
303.15 K, 10000 kPa	814.4
303.15 K, 20000 kPa	820.7
303.15 K, 30000 kPa	826.7
303.15 K, 40000 kPa	832.2
303.15 K, 50000 kPa	837.5
303.15 K, 60000 kPa	842.4
303.15 K, 70000 kPa	847
303.15 K, 80000 kPa	851.6
303.15 K, 90000 kPa	855.8
303.15 K, 100000 kPa	860.1
303.15 K, 110000 kPa	864.1
303.15 K, 120000 kPa	868
303.15 K, 130000 kPa	871.7
303.15 K, 140000 kPa	875.2
313.15 K, 100 kPa	799.8
313.15 K, 10000 kPa	807.4
313.15 K, 20000 kPa	814.1
313.15 K, 30000 kPa	820.2
313.15 K, 40000 kPa	826
313.15 K, 50000 kPa	831.5
313.15 K, 60000 kPa	836.6
313.15 K, 70000 kPa	841.4
313.15 K, 80000 kPa	846.1
313.15 K, 90000 kPa	850.5
313.15 K, 100000 kPa	854.8
313.15 K, 110000 kPa	858.9
313.15 K, 120000 kPa	862.8
313.15 K, 130000 kPa	866.6
313.15 K, 140000 kPa	870.2
323.15 K, 100 kPa	792.5
323.15 K, 10000 kPa	800.3
323.15 K, 20000 kPa	807.3
323.15 K, 30000 kPa	813.7
323.15 K, 40000 kPa	819.8
323.15 K, 50000 kPa	825.4
323.15 K, 60000 kPa	830.7
323.15 K, 70000 kPa	835.7
323.15 K, 80000 kPa	840.4
323.15 K, 90000 kPa	845
323.15 K, 100000 kPa	849.3
323.15 K, 110000 kPa	853.6
323.15 K, 120000 kPa	857.6
323.15 K, 130000 kPa	861.5
323.15 K, 140000 kPa	865.3
333.15 K, 100 kPa	784.4
333.15 K, 10000 kPa	792.7
333.15 K, 20000 kPa	800.1
333.15 K, 30000 kPa	806.8
333.15 K, 40000 kPa	813.1
333.15 K, 50000 kPa	818.9
333.15 K, 60000 kPa	824.4
333.15 K, 70000 kPa	829.7
333.15 K, 80000 kPa	834.6
333.15 K, 90000 kPa	839.2
333.15 K, 100000 kPa	843.7
333.15 K, 110000 kPa	848
333.15 K, 120000 kPa	852.1
333.15 K, 130000 kPa	856
333.15 K, 140000 kPa	860
343.15 K, 100 kPa	776.5
343.15 K, 10000 kPa	785.2
343.15 K, 20000 kPa	792.9
343.15 K, 30000 kPa	799.9
343.15 K, 40000 kPa	806.6
343.15 K, 50000 kPa	812.6
343.15 K, 60000 kPa	818.3
343.15 K, 70000 kPa	823.7
343.15 K, 80000 kPa	828.7
343.15 K, 90000 kPa	833.5
343.15 K, 100000 kPa	838.2
343.15 K, 110000 kPa	842.5
343.15 K, 120000 kPa	846.8
343.15 K, 130000 kPa	850.9
343.15 K, 140000 kPa	854.8
353.15 K, 100 kPa	768.1
353.15 K, 10000 kPa	777.3
353.15 K, 20000 kPa	785.6
353.15 K, 30000 kPa	792.9
353.15 K, 40000 kPa	799.8
353.15 K, 50000 kPa	806.1
353.15 K, 60000 kPa	812
353.15 K, 70000 kPa	817.6
353.15 K, 80000 kPa	822.8
353.15 K, 90000 kPa	827.8
353.15 K, 100000 kPa	832.6
353.15 K, 110000 kPa	837.2
353.15 K, 120000 kPa	841.6
353.15 K, 130000 kPa	845.8
353.15 K, 140000 kPa	849.7
363.15 K, 100 kPa	759.4
363.15 K, 10000 kPa	769.2
363.15 K, 20000 kPa	777.7
363.15 K, 30000 kPa	785.6
363.15 K, 40000 kPa	792.6
363.15 K, 50000 kPa	799.2
363.15 K, 60000 kPa	805.5
363.15 K, 70000 kPa	811.3
363.15 K, 80000 kPa	816.7
363.15 K, 90000 kPa	821.8
363.15 K, 100000 kPa	826.8
363.15 K, 110000 kPa	831.3
363.15 K, 120000 kPa	835.8
363.15 K, 130000 kPa	840.1
363.15 K, 140000 kPa	844.2
373.15 K, 100 kPa	750.7
373.15 K, 10000 kPa	761.2
373.15 K, 20000 kPa	770.3
373.15 K, 30000 kPa	778.2
373.15 K, 40000 kPa	785.7
373.15 K, 50000 kPa	792.5
373.15 K, 60000 kPa	798.9
373.15 K, 70000 kPa	804.9
373.15 K, 80000 kPa	810.5
373.15 K, 90000 kPa	815.8
373.15 K, 100000 kPa	820.9
373.15 K, 110000 kPa	825.7
373.15 K, 120000 kPa	830.3
373.15 K, 130000 kPa	834.7
373.15 K, 140000 kPa	839
383.15 K, 100 kPa	741.5
383.15 K, 10000 kPa	752.3
383.15 K, 20000 kPa	761.9
383.15 K, 30000 kPa	770.7
383.15 K, 40000 kPa	778.5
383.15 K, 50000 kPa	785.7
383.15 K, 60000 kPa	792.3
383.15 K, 70000 kPa	798.5
383.15 K, 80000 kPa	804.3
383.15 K, 90000 kPa	809.7
383.15 K, 100000 kPa	815
383.15 K, 110000 kPa	819.9
383.15 K, 120000 kPa	824.7
383.15 K, 130000 kPa	829.2
383.15 K, 140000 kPa	833.5
393.15 K, 100 kPa	731.7
393.15 K, 10000 kPa	743.4
393.15 K, 20000 kPa	753.7
393.15 K, 30000 kPa	762.8
393.15 K, 40000 kPa	771
393.15 K, 50000 kPa	778.6
393.15 K, 60000 kPa	785.6
393.15 K, 70000 kPa	792
393.15 K, 80000 kPa	798.1
393.15 K, 90000 kPa	803.7
393.15 K, 100000 kPa	809.1
393.15 K, 110000 kPa	814.2
393.15 K, 120000 kPa	819.1
393.15 K, 130000 kPa	823.7
393.15 K, 140000 kPa	828.1
403.15 K, 100 kPa	721.7
403.15 K, 10000 kPa	734.4
403.15 K, 20000 kPa	745.3
403.15 K, 30000 kPa	754.9
403.15 K, 40000 kPa	763.4
403.15 K, 50000 kPa	771.3
403.15 K, 60000 kPa	778.4
403.15 K, 70000 kPa	785.1
403.15 K, 80000 kPa	791.3
403.15 K, 90000 kPa	797.2
403.15 K, 100000 kPa	802.8
403.15 K, 110000 kPa	808
403.15 K, 120000 kPa	813
403.15 K, 130000 kPa	817.8
403.15 K, 140000 kPa	822.3
